Measured values reported in PubChem BioAssay (NCI).
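The compound was tested at five concentrations on cells cultured in 96-well plates, with a 48-hour exposure period. TGI: concentration producing complete growth inhibition.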

What was measured:
Experiment in all cases: growth of human tumour cells (NCI), 48 h
RXF 393 renal = system: RXF 393 renal
786-0 renal = system: 786-0 renal
SW-620 colon = system: SW-620 colon
K-562 leukemia = system: K-562 leukemia
MOLT-4 leukemia = system: MOLT-4 leukemia
OVCAR-8 ovarian = system: OVCAR-8 ovarian
SF-539 CNS = system: SF-539 CNS
HCT-15 colon = system: HCT-15 colon
NCI/ADR-RES ovarian = system: NCI/ADR-RES ovarian
HOP-62 NSCLC = system: HOP-62 NSCLC
BT-549 breast = system: BT-549 breast

| Structure (SMILES) | TGI (RXF 393 renal) [µM] | TGI (786-0 renal) [µM] | TGI (SW-620 colon) [µM] | TGI (K-562 leukemia) [µM] | TGI (MOLT-4 leukemia) [µM] | TGI (OVCAR-8 ovarian) [µM] | TGI (SF-539 CNS) [µM] | TGI (HCT-15 colon) [µM] | TGI (NCI/ADR-RES ovarian) [µM] | TGI (HOP-62 NSCLC) [µM] | TGI (BT-549 breast) [µM] |
| --- | --- | --- | --- | --- | --- | --- | --- | --- | --- | --- | --- |
| C=C1CCCC2[C@](C)(CC3=C(Cl)C(=O)C=C(OC)C3=O)C(C)CC[C@]12C (stereo not given in full) | 12.1 | 6.53 | 10.4 | 13.1 | 6.99 | 9.78 | 9.06 | 13.9 | 33.2 | 13.5 | 11.4 |
| Cc1ccc(S(=O)(=O)CN2C(=O)C(c3ccccc3)(c3ccccc3)C23OC(c2ccc(Cl)cc2)=CC3=O)cc1 (stereo not given) | > 10 | > 10 | > 10 | > 10 | > 10 | > 10 | > 10 | > 10 | > 10 | > 10 | > 10 |
| Cc1sc2[nH]c(=O)oc(=O)c2c1C | > 100 | > 100 | > 100 | > 100 | > 100 | > 100 | > 100 | > 100 | > 100 | > 100 | > 86.6 |
| CCCCc1ccc(Nc2nc(Cl)c3ncn(COCCOC(C)=O)c3n2)cc1 | 38.2 | 29.5 | 43.8 | 55.5 | 61.8 | 32.6 | 63.3 | 31.6 | 35.7 | 30.8 | 35.8 |
| CCc1c(CN)c(CC)c(CNC2=NCCN2)c(CC)c1CNC1=NCCN1 | > 100 | > 100 | > 100 | > 100 | > 100 | > 100 | > 100 | > 100 | > 100 | > 100 | > 100 |
| Cc1ccc(S(=O)(=O)N2CCN(S(=O)(=O)c3ccc(C)cc3)CCN(S(=O)(=O)c3ccc(C)cc3)Cc3cc(C#N)c(C#N)cc3CN(S(=O)(=O)c3ccc(C)cc3)CC2)cc1 | > 100 | > 100 | > 100 | > 100 | > 100 | > 100 | > 100 | > 100 | > 100 | > 100 | > 100 |
| O=C1c2cccnc2S(=O)(=O)N1c1ccc(Oc2ccccc2)cc1 | > 100 | > 100 | > 100 | > 100 | > 100 | > 100 | > 100 | > 100 | > 100 | > 100 | > 100 |
| N#C[C@H](C(=O)c1ccccc1F)c1nc2ccccc2s1 | > 100 | > 100 | > 100 | > 100 | 96.1 | > 100 | 59.8 | > 100 | > 100 | > 100 | > 100 |
| COc1ccc(OC)c(CSc2ccc(OC)c(OC)c2)c1 | > 100 | > 100 | > 100 | > 100 | > 100 | > 100 | > 100 | > 100 | > 100 | > 100 | > 100 |
| C1=NCCN2CCN(CCN=Cc3ccccc3OCc3cccc(n3)COc3ccccc31)CC2 | 4.68 | 39.5 | > 50 | > 50 | 34.3 | 35.5 | 14.1 | 21.4 | 17.2 | > 50 | 25.9 |
| CC(=O)OC(CN1CCN(c2ccccn2)CC1)Cn1sc2nc(C)cc(C)c2c1=O (stereo not given) | 35.6 | 28.1 | > 100 | 94 | > 100 | 73.9 | 29.2 | 42.2 | 67.1 | 81.1 | 33.2 |
| Oc1cc(O)c2ccc(-c3ccc(O)c(O)c3)[o+]c2c1 | > 100 | > 100 | > 100 | > 100 | > 100 | > 100 | > 100 | > 100 | > 100 | > 100 | > 100 |
| Cn1c(NNc2ccccc2)cc(=O)[nH]c1=O | > 100 | 44.2 | > 100 | > 100 | > 100 | > 100 | > 100 | > 100 | > 100 | > 100 | > 100 |
| Nc1ccc2nc3c(nc2c1)C(=O)c1ccccc1-3 | > 100 | > 100 | > 100 | > 100 | > 100 | > 100 | > 100 | > 100 | > 100 | > 100 | > 100 |
| OCc1cc2c(ccc3sc4ccc5sc6ccc7ncccc7c6c5c4c32)s1 | 28.9 | 15.1 | > 100 | > 100 | 48.4 | 62.1 | 32.4 | 33.6 | 82.5 | 28.6 | 38.6 |
| CC(=O)OCC(OC(C)=O)C(OC(C)=O)C(/C=N\Nc1nc2ccccc2c(=O)[nH]1)=N\Nc1nc2ccccc2c(=O)[nH]1 (stereo not given) | > 100 | > 100 | > 100 | > 100 | > 100 | > 100 | > 100 | > 100 | > 100 | > 100 | > 100 |
| COc1cc(C(=O)/C=C/c2ccc(OCCSCCCCCCCCCCSCCOc3ccc(/C=C/C(=O)c4cc(OC)c(OC)c(OC)c4)cc3)cc2)cc(OC)c1OC | > 100 | > 100 | > 100 | > 100 | > 100 | > 100 | > 100 | > 100 | > 100 | > 100 | > 100 |
| Cc1c(C)c(C)c(CC2(C)CSC2)c(CC2(C)CSC2)c1C | > 100 | > 100 | > 100 | > 100 | > 100 | > 100 | > 100 | > 100 | > 100 | > 100 | > 100 |
| COc1cc(=O)c2c(O)c3c(O)oc(C)cc3c(OC)c2c1 | > 100 | 86.7 | > 100 | 51.7 | 73.7 | 72 | 53.8 | 86.8 | 46.7 | 76.1 | > 100 |
| Cc1ccc(/C=N/n2c(Cc3ccccc3)n[nH]c2=O)cc1 | > 100 | > 100 | > 100 | > 100 | > 100 | > 100 | > 100 | > 100 | > 100 | > 100 | > 100 |
